Reference: patent US20160137639A1, “TRIAZOLE-ISOXAZOLE COMPOUND AND MEDICAL USE THEREOF” (JAPAN TOBACCO INC., priority 2012, published 2016)
pEC50: −log10 of the molar value. Read-outs that look alike come from different tables or passages of the source.

Key:
human RORγ = target: T1, human RORγ (Homo sapiens, UniProt P51449); experiment: Luciferase reporter gene assay of inhibitory effect against RORγ transcriptional activity (GAL4-hRORγ plasmid in CHO cells); format: cell-based; conditions: for EC50: read-out: LUC EC50 (μM) hRORg; for pEC50: read-out: LUC EC50 hRORg
T1 construct: human, NM_005060.3 and from Ser253 to Lys518; expressed in transfected cells; host or cells: CHO cells (transient co-transfection with pG5-Luc reporter)
T1 sequence (P51449 253-518): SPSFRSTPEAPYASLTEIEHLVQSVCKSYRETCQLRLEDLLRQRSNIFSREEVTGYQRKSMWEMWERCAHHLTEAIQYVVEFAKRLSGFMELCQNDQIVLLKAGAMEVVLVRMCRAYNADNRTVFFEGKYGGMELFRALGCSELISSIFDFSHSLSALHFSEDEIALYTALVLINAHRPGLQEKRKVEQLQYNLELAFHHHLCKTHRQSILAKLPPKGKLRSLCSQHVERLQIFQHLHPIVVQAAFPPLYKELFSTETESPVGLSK

mouse RORγ = target: T2, mouse RORγ (Mus musculus, UniProt P51450); experiment: Luciferase reporter gene assay of inhibitory effect against RORγ transcriptional activity (GAL4-mRORγ plasmid in CHO cells); format: cell-based; conditions: for EC50: read-out: LUC EC50 (μM) mRORg; for pEC50: read-out: LUC EC50 mRORg
T2 construct: mouse, NM_011281.2 and from Ile251 to Lys516; expressed in transfected cells; host or cells: CHO cells (transient co-transfection with pG5-Luc reporter)
T2 sequence (P51450 251-516): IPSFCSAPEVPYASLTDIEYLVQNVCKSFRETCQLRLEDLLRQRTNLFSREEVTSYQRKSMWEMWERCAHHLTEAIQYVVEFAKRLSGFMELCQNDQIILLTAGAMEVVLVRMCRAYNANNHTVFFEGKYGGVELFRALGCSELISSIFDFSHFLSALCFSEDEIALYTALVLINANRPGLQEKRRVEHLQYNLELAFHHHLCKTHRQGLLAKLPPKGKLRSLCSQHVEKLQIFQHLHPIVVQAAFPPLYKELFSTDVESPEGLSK
Outline: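 CHO cells transiently co-transfected with GAL4-mouse RORγ LBD (Ile251–Lys516) and GAL4-dependent luciferase reporter; eight compound concentrations, 0.1% DMSO, 2 days at 37 °C. Luminescence as %-of-vehicle control; EC50 by curve fit, cytotoxic concentrations excluded.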

Row | Structure (SMILES) | EC50 (human RORγ) [µM] | EC50 (mouse RORγ) [µM] | pEC50 (human RORγ) | pEC50 (mouse RORγ)
1 | COc1cccc(CNC(=O)CCc2nnc(CCC(C)C)n2C2CC2)c1C [Example F-127] | > 3 | > 3 |  | 
2 | Cc1c(Cl)cccc1NC(=O)CCc1nnc(CCCC(C)(C)C(=O)N(C)C)n1C1CC1 [Example F-238] | > 3 | > 3 |  | 
3 | CCn1c(CCCC(C)(C)C)nnc1[C@@H]1[C@@H](C(=O)Nc2ccc(C)cc2C)CCN1C(C)=O [Example F-369] | < 3 | < 3 |  | 
4 | CC(=O)N1C[C@H](C(=O)Nc2ccc(C)cc2C)[C@@H](c2nnc(C3CC3CC(C)C)n2C2CC2)C1 (mixture of isomers) [Example F-341] | < 3 | < 3 |  | 
5 | Cc1ccc(NC(=O)C[C@H](CCC(=O)O)c2noc(-c3cc(C(C)(C)C(F)(F)F)on3)c2C2CC2)c(Cl)c1 [Example E-54] | < 3 | < 3 |  | 
6 | CC(=O)N1C[C@H](C(=O)Nc2ccc(C)cc2C)[C@@H](c2nnc(C3CC4(CCCCC4)C3)n2C2CC2)C1 [Example F-473] | < 3 | < 3 |  | 
7 | CCCc1ccccc1NC(=O)CCc1nnc(CCC(C)C)n1C1CC1 [Example F-77] | > 3 | > 3 |  | 
8 | Cc1c(NC(=O)C[C@H](OCC(F)(F)F)c2nnc(-c3cc(CC(C)C)on3)n2C2CC2)ccc(F)c1F [Example F-633] |  |  | > 5.52 | > 5.52
9 | CCn1c(CC(C)C(=O)Nc2cccc3ccccc23)nnc1C1Cc2ccccc2C1 (racemic) [Example F-32] | < 3 | < 3 |  | 
10 | Cc1c(Cl)cccc1NC(=O)CCc1nnc([C@H]2CC[C@H](C(C)C)CC2)n1C1CC1 [Example F-280] | < 3 | < 3 |  | 
11 | CCn1c(CCCC(C)(C)C)nnc1[C@@H]1[C@@H](C(=O)NCc2ccc(C)cc2OC)CCN1C(C)=O [Example F-370] | < 3 | < 3 |  | 
12 | Cc1ccc(NC(=O)C[C@H](CCO)c2noc([C@H]3C[C@@H](CC(C)C)C3)c2C2CC2)c(C)c1 [Example F-578] |  |  | > 5.52 | > 5.52
13 | Cc1ccc(NC(=O)CCc2nnc(CCC3CCCCC3)n2[C@@H]2C[C@H]2C)c(C)c1 (racemic) [Example F-141] | > 3 | < 3 |  | 
14 | Cc1ccc(NC(=O)[C@H]2C[C@H](O)C[C@@H]2c2nnc([C@H]3C[C@@H](CC(C)C)C3)n2C2CC2)c(C)c1 (racemic) [Example F-421] | < 3 | < 3 |  | 
15 | Cc1ccc(NC(=O)C[C@H](CC(O)C(F)(F)F)c2nnc([C@H]3C[C@@H](CC(C)C)C3)n2C2CC2)c(C)c1 (single isomer, unassigned) [Example F-622] |  |  | > 5.52 | > 5.52
16 | Cc1ccc(NC(=O)C[C@H](CCC(=O)O)c2noc(-c3cc(C(F)(F)CC(C)C)on3)c2C2CC2)c(Cl)c1 [Example E-33] | < 3 | < 3 |  | 
17 | Cc1c(Cl)cccc1NC(=O)CC(CCO)c1nnc(CCC2CCCCC2)n1C1CC1 (racemic) [Example F-247] | < 3 | < 3 |  | 
18 | CC(=O)NCCCC(CC(=O)Nc1ccc(C)cc1C)c1nnc(CCCC(C)C)n1C1CC1 (racemic) [Example F-287] | > 3 | > 3 |  | 
19 | Cc1c(Cl)cccc1CNC(=O)CCc1nnc(CCC(C)C)n1C1CC1 [Example F-123] | > 3 | > 3 |  | 
20 | Cc1ccc(NC(=O)CCc2nnc(COC(C)(C)C)n2C2CC2)c(C)c1 [Example F-97] | > 3 | > 3 |  | 
21 | Cc1ccc(NC(=O)C[C@H](NC(C)C)c2nnc([C@H]3C[C@@H](CC(C)C)C3)n2C2CC2)c(C)c1 [Example F-536] |  |  | > 5.52 | > 5.52
22 | CC(=O)N1C[C@H](C(=O)Nc2ccc(C)cc2C)[C@@H](c2nnc(C3CN(C(=O)OC(C)(C)C)C3)n2C2CC2)C1 (racemic) [Example F-416] | > 3 | > 3 |  | 
23 | Cc1ccc(NC(=O)CCc2noc(C3(CCO)CC(CC(C)(C)C)C3)c2C2CC2)c(Cl)c1 (mixture of isomers) [Example F-742] |  |  | < 5.52 | < 5.52
24 | Cc1ccc(NC(=O)[C@H]2CN(S(=O)(=O)C(F)(F)F)C[C@@H]2c2nnc(CCCC(C)(C)C)n2C2CC2)c(C)c1 (racemic) [Example F-527] |  |  | > 5.52 | > 5.52
25 | CC(=O)N1C[C@H](C(=O)Nc2ccc(C)cc2C)[C@@H](c2nnc(CCCC(C)C)n2C2CC2)C1 [Example F-315] | < 3 | < 3 |  | 

Row | Structure (SMILES) | EC50 (human RORγ) [µM] | EC50 (mouse RORγ) [µM] | pEC50 (human RORγ) | pEC50 (mouse RORγ)
26 | Cc1ccc(NC(=O)C[C@H](CC(=O)O)c2noc([C@H]3C[C@@H](CC(C)C)C3)c2C2CC2)cn1 [Example F-667] |  |  | < 5.52 | > 5.52
27 | Cc1ccc(NC(=O)[C@H]2CN(CC(C)C)C[C@@H]2c2nnc([C@H]3C[C@@H](CC(C)C)C3)n2C2CC2)c(C)c1 [Example F-596] |  |  | > 5.52 | > 5.52
28 | CCN(CC)CC(=O)N1C[C@H](C(=O)Nc2ccc(C)cc2C)[C@@H](c2nnc([C@H]3C[C@@H](CC(C)(C)C)C3)n2C2CC2)C1 [Example F-650] |  |  | > 5.52 | > 5.52
29 | Cc1ccc(NC(=O)C[C@H](CC(C)C)c2noc(-c3cc(CC(C)C)on3)c2C2CC2)c(C)c1 [Example F-635] |  |  | > 5.52 | > 5.52
30 | Cc1ccc(NC(=O)[C@H]2CN(C)C[C@@H]2c2nnc([C@H]3C[C@@H](CC(C)(C)C)C3)n2C2CC2)c(C)c1 [Example F-549] |  |  | > 5.52 | > 5.52
31 | COC1(CC(C)C)CC(c2nnc([C@H]3CN(C(C)=O)C[C@@H]3C(=O)Nc3ccc(C)cc3C)n2C2CC2)C1 (single isomer, unassigned) [Example F-482] | < 3 | < 3 |  | 
32 | Cc1ccc(NC(=O)[C@H]2CC(F)(F)C[C@@H]2c2nnc([C@H]3C[C@@H](CC(C)C)C3)n2C2CC2)c(C)c1 [Example F-571] |  |  | > 5.52 | > 5.52
33 | Cc1ccc(NC(=O)CC(CN)c2nnc(CCCC(C)C)n2C2CC2)c(C)c1 (racemic) [Example F-274] | > 3 | > 3 |  | 
34 | COc1cc(C)ccc1CNC(=O)CCc1nnc(CCC2CCCCC2)n1C1CC1 [Example F-188] | < 3 | < 3 |  | 
35 | CC(C)(C)C[C@H]1C[C@@H](c2onc([C@@H](CCC(=O)O)CC(=O)NC3CCC3)c2C2CC2)C1 [Example F-711] |  |  | < 5.52 | < 5.52
36 | Cc1ccc(NC(=O)C(C)C(CCOCc2ccccc2)c2nnc([C@H]3C[C@@H](CC(C)C)C3)n2C2CC2)c(C)c1 (some centres unmarked) [Example F-489] | > 3 | < 3 |  | 
37 | CC(=O)N1C[C@H](C(=O)Nc2cccc(C)c2C)[C@@H](c2nnc(CCCC(C)(C)C)n2C2CC2)C1 (racemic) [Example F-324] | < 3 | < 3 |  | 
38 | COC(=O)N1C[C@H](C(=O)Nc2ccc(C)cc2C)[C@@H](c2nnc(CCCC(C)(C)C)n2C2CC2)C1 (racemic) [Example F-399] | < 3 | < 3 |  | 
39 | Cc1ccc(NC(=O)CCc2nnc(C3(O)CC(CC(C)C)C3)n2C2CC2)c(C)c1 (single isomer, unassigned) [Example F-430] | < 3 | < 3 |  | 
40 | CC(=O)N1C[C@@H](C(=O)Nc2ccc(C)cc2C)[C@H](c2nnc(CCCC(C)C)n2C2CC2)C1 [Example F-316] | > 3 | > 3 |  | 
41 | CCn1c(CCC(=O)Nc2cccc(Cl)c2C)nnc1CCC1CCCCC1 [Example F-39] | < 3 | < 3 |  | 
42 | Cc1ccc(NC(=O)C[C@@H](Cc2nccs2)c2nnc([C@H]3C[C@@H](CC(C)C)C3)n2C2CC2)c(C)c1 [Example F-476] | < 3 | < 3 |  | 
43 | CCn1c(C2Cc3ccccc3C2)nnc1[C@H]1C[C@@H]1C(=O)Nc1cccc2ccccc12 (racemic) [Example F-26] | > 3 | > 3 |  | 
44 | CC(C)C[C@H]1C[C@@H](c2nnc([C@@H](CCO)CC(=O)Nc3ccc(Cl)cc3F)n2C2CC2)C1 [Example F-519] |  |  | > 5.52 | > 5.52
45 | CC(=O)N1C[C@H](C(=O)Nc2ccc(C)cc2C)[C@@H](c2nnc(-c3cc(CC(C)C)no3)n2C2CC2)C1 [Example F-506] |  |  | > 5.52 | > 5.52
46 | Cc1cc(Cl)ccc1NC(=O)C[C@H](CCO)c1nnc([C@H]2C[C@@H](CC(C)C)C2)n1C1CC1 [Example F-525] |  |  | > 5.52 | > 5.52
47 | CCn1c(CCC(=O)Nc2cc(C)cc(C)c2)nnc1CCC(C)C [Example F-50] | > 3 | > 3 |  | 
48 | Cc1ccc(NC(=O)CC(CCC(=O)O)c2nnc(CCCC(C)C)n2C2CC2)c(C)c1 (racemic) [Example F-283] | > 3 | > 3 |  | 
49 | Cc1ccc(NC(=O)C[C@H](CNC(=O)CC#N)c2noc([C@H]3C[C@@H](CC(C)C)C3)c2C2CC2)c(C)c1 [Example F-647] |  |  | > 5.52 | > 5.52
